# Patent EP0786471A1, “Arthrichitin, a process for its production and its use” (HOECHST AKTIENGESELLSCHAFT, priority 1996, dated 1997)
# What was measured:
# Plasmopara viticola = experiment: in vivo activity against phytopathogenic fungi
# Phytophthora infestans = conditions: in vivo
# Botrytis cinerea = experiment: in vivo activity against phytopathogenic fungi
# Pyricularia oryzae = conditions: in vivo
# Erysiphe graminis = experiment: in vivo activity against phytopathogenic fungi
# Septoria nodorum = experiment: in vivo activity against phytopathogenic fungi
# [1] = tested on: Pseudocercosporella herpotrichoides; experiment: in vivo activity against phytopathogenic fungi
# [2] = tested on: Neurospora crassa strain SGF 18; experiment: modified screening method of detecting cell-wall active compounds; format: cell-based
# Experimental: Fermentation carried out for about 90 hours under submerged condition in shake flasks in order to achieve the maximum activity is particularly preferred. The progress of fermentation and the formation of Arthrichitin of the present invention can be detected by the modified screening method of detecting the cell-wall active compounds [J. Antibiotics, 39(11), 1620-1622, 1986] using the Neurospora crassa strain SGF 18.
# The production of Arthrichitin was monitored by using the modified screening method of detecting cell-wall active compounds [J. Antibiot., 39 (11), 1620-22, 1986] using the Neurospora crassa strain SGF 18 and growing it in a medium containing the following nutrients : soluble starch 1.5%; Yeast extract 0.4%; K2HPO4 0.1 %; MgSO4.7H2O 0.05%; D-Sorbitol 7.5% (Osmotic stabilizer); L-Sorbose 2.5% (Glucan synthesis inhibitor) and agar 1.5%.
# [3] = solubility (physico-chemical properties); format: physicochemical
# Excerpt: The physico-chemical properties of Arthrichitin are as follows : Appearance : Colorless solid Solubility : Soluble in methanol and dimethylsulfoxide; insoluble in petroleum ether, chloroform, ethylacetate and water. Molecular weight : 642 (FAB MS) (Matrix : 3-nitrobenzyl alcohol) Molecular formula : C33H46N4O9 (calculated : […]; [observed : m/z 643.3341 (M + H)^+ (HR FAB-MS; matrix : MeOH/NBA; internal reference : polyethylene glycol 600); calculated for C33H47N4O9 : 643.3345] Melting point : 245°C [α]D : + 24.12°C (c 0.475, MeOH) HPLC retention time : 5.4 minutes [4 x (30 + 100) mm 10µ ODS ®Hypersil column; mobile phase : 35% acetonitrile in 0.02 M aqueous sodium phosphate buffer, pH 7.0; flow rate : 1 ml/min.; UV detection : 220 nm] UV λmax (MeOH) : 247, 266, 310 nm; no shift with acid and alkali IR (KBr) : Figure 1 ^1H NMR (300 MHz, DMSO-d6) : Figure 2 ^13C NMR (75 MHz, DMSO-d6) : Figure 3
smiles,measurement,setting,value
CCCCCCCCC(C)C1OC(=O)C(CO)NC(=O)C(C(=O)c2c[nH]c3ccccc23)NC(=O)C(CCC(=O)O)NC(=O)C1C (centres unmarked) [Arthrichitin],activity against Plasmopara viticola,Plasmopara viticola,very good activity
same,activity against Phytophthora infestans,Phytophthora infestans,very good activity
same,activity against Botrytis cinerea,Botrytis cinerea,very good activity
same,activity against Pyricularia oryzae,Pyricularia oryzae,very good activity
same,activity against Erysiphe graminis,Erysiphe graminis,very good activity
same,activity against Septoria nodorum,Septoria nodorum,very good activity
same,activity against Pseudocercosporella herpotrichoides,[1],very good activity
same,activity as cell wall inhibiting compound,[2],activity as cell wall inhibiting compound
same,Solubility,[3]; chloroform,insoluble
same,Solubility,[3]; dimethylsulfoxide,Soluble
same,Solubility,[3]; ethylacetate,insoluble
same,Solubility,[3]; methanol,Soluble
same,Solubility,[3]; petroleum ether,insoluble
same,Solubility,[3]; water,insoluble
